{"source": "patent US6544987B2", "about": "“Compounds, compositions, and methods for stimulating neuronal growth and elongation” (Pfizer Inc., priority 1999, dated 2003)", "note": "Several values for one entry are separate records, joined by “and”; a condition that tells them apart may be missing. Equal values may be shown once.", "data": [{"molecular_target": "T1, FKBP12 (Homo sapiens, UniProt P62942)", "T1 sequence (P62942 whole entry, species assumed)": "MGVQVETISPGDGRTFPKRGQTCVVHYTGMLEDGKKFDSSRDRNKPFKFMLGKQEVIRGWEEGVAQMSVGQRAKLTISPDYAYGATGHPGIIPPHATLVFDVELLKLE", "experiment": "Rotamase inhibition assay (N-succinyl-Ala-Ala-Pro-Phe-p-nitroanilide, chymotrypsin-coupled)", "format": "biochemical", "details": "Table 1; read-out: Rotamase Ki(app)", "description": "In the rotamase inhibition assay, isomerization of an artificial substrate N-succinyl-Ala-Ala-Pro-Phe-p-nitroanilide is followed spectrophotometrically. The assay includes the cis form of the substrate, FKBP12, the compound being tested, and chymotrypsin. Chymotrypsin is able to cleave p-nitroaniline from the trans form of the substrate, but not from the cis form. Release of p-nitroaniline is measured spectrophotometrically. Using this assay, various amounts of the FKBP rotamase-inhibiting compounds of formula (I) were added to cis-N-succinyl-alanine-alanine-proline-phenylalanine-para-nitroaniline (BACHEM, 3132 Kashiwa Street, Torrance, Calif. 90505) in the presence of FKBP12 and chymotrypsin. Spectrophotometric measurements of p-nitroaniline concentrations allowed estimation of the apparent Ki values, which are provided in Table 1 below.", "units": {"Ki": "nM"}, "values": [{"smiles": "COc1cc(NS(=O)(=O)N2CCCC[C@H]2C(=O)OC(CCCc2ccccc2)CCCc2ccccc2)cc(OC)c1OC", "note": "[Compound 22, 1-(3,4,5-Trimethoxy-phenylsulfamoyl)-piperidine-2S-carboxylic acid 4-phenyl-1-(3-phenyl-propyl)-butyl ester]", "Ki": 382}]}, {"molecular_target": "T1, FKBP12", "experiment": "Affinity for FKBP-12 (Ki), succinyl-Ala-Leu-Pro-Phe-pNA chymotrypsin-coupled assay", "format": "biochemical", "design": "key to FKBP12 inhibition (in Kiapps column): NI: no inhibition; NSI: no significant inhibition", "details": "@ 20", "description": "(§1) In a quartz cuvette, a final 1 mL buffer concentration was reached (50 mM Hepes, 100 mM NaCl, pH 8.0). Within this final reaction volume, 3.5 μL […] FKBP-12 (in 50 mM Hepes, 100 mM NaCl, pH 8.0) and 10 μL test compound in DMSO were added. The reaction was initiated by adding 10 μL chymotrypsin (100 mg/mL in 1 mM HCl) followed by 5 μL (1-20 mM succinyl-Ala-Leu-Pro-Phe-pNA in 240 mM LiCl/TFE).\n(§2) The absorbance at 390 nm versus time was monitored for up to 400 seconds. Rate constants were determined from the absorbance versus time plots generated.", "values": [{"smiles": "O=C(OCCCCc1ccccc1)[C@@H]1CCCCN1S(=O)(=O)N(O)c1ccccc1", "note": "[Compound 99, (S)-1-(Hydroxy-phenyl-sulfamoyl)-piperidine-2-carboxylic acid 4-phenyl-butyl ester]", "FKBP12 inhibition (in Kiapps column)": "NI @ 20"}, {"smiles": "O=C(O)[C@@H]1CCCN1S(=O)(=O)Nc1cccnc1", "note": "[Compound 116, (S)-1-(Pyridin-3-ylsulfamoyl)-pyrrolidine-2-carboxylic acid]", "FKBP12 inhibition (in Kiapps column)": "NSI @ 20"}, {"smiles": "O=C1[C@@H]2CCCN2S(=O)(=O)N1c1cccnc1", "note": "[Compound 117, (S)-1,1-Dioxo-2-pyridin-3-yl-hexahydro-1λ^6-thia-2,6a-diaza-pentalen-3-one]", "FKBP12 inhibition (in Kiapps column)": "NSI @ 20"}]}, {"molecular_target": "T1, FKBP12", "experiment": "Affinity for FKBP-12 (Ki), succinyl-Ala-Leu-Pro-Phe-pNA chymotrypsin-coupled assay", "format": "biochemical", "design": "key to FKBP12 inhibition (in Kiapps column): NI: no inhibition; NSI: no significant inhibition", "details": "Table 2; read-out: FKBP12 Kiapps", "description": "as §1, §2", "values": [{"smiles": "CN(C)S(=O)(=O)N1CCCC[C@H]1c1nnc(Cc2ccccc2)o1", "note": "[Compound 75, 2S-(5-Benzyl-[1,3,4]oxadiazol-2-yl)-piperidine-1-sulfonic acid dimethylamide]", "Ki": "107000 nM"}, {"smiles": "O=S(=O)(Nc1ccccc1)N1CCCC[C@H]1c1nnc(Cc2ccccc2)o1", "note": "[Compound 76, 2S-(5-Benzyl-[1,3,4]oxadiazol-2-yl)-piperidine-1-sulfonic acid phenylamide]", "Ki": "1300 nM"}, {"smiles": "COc1ccc(N(C)S(=O)(=O)N2CCCC[C@H]2c2nnc(Cc3ccccc3)o2)cc1", "note": "[Compound 77, 2-(5-Benzyl-[1,3,4]oxadiazol-2-yl)-piperidine-1-sulfonic acid (4-methoxy-phenyl)-methyl-amide]", "Ki": "68000 nM"}, {"smiles": "COc1cc(NS(=O)(=O)N2CCCC[C@H]2c2nnc(Cc3ccccc3)o2)cc(OC)c1OC", "note": "[Compound 78, 2-(5-Benzyl-[1,3,4]oxadiazol-2-yl)-piperidine-1-sulfonic acid (3,4,5-trimethoxy-phenyl)-amide]", "Ki": "5200 nM"}, {"smiles": "COc1cc(NS(=O)(=O)N2[C@H]3CC[C@H](C3)[C@H]2C(=O)OCCCCc2ccccc2)cc(OC)c1OC", "note": "[Compound 85, 2-(3,4,5-Trimethoxy-phenylsulfamoyl)-2-aza-bicyclo[2.2.1]heptane-endo-3-carboxylic acid 4-phenyl-butyl ester]", "Ki": "1600 nM"}, {"smiles": "O=C(OCc1ccccc1)[C@@H]1CCCCN1S(=O)(=O)Nc1ccc(N2CCOCC2)nc1", "note": "[Compound 86, (S)-1-(6-Morpholin-4-yl-pyridin-3-ylsulfamoyl)-piperidine-2-carboxylic acid Benzyl ester]", "Ki": "1790 nM and 1170 nM"}, {"smiles": "COc1ccc(NS(=O)(=O)N2CCCC[C@H]2C(=O)OCc2ccccc2)cn1", "note": "[Compound 87, 1-(6-Methoxy-pyridin-3-ylsulfamoyl)-piperidine-2S-carboxylic acid Benzyl ester]", "Ki": "760 nM"}, {"smiles": "C[C@@H]1CN(S(=O)(=O)N2CCCC[C@H]2C(=O)OCc2ccccc2)C[C@H](C)O1", "note": "[Compound 88, (S)-1-(cis-2,6-Dimethyl-morpholine-4-sulfonyl)-piperidine-2-carboxylic acid benzyl ester]", "Ki": "837 nM"}, {"smiles": "COC(=O)[C@@H]1CCCCN1S(=O)(=O)Nc1cc(OC)c(OC)c(OC)c1", "note": "[Compound 90, (S)-1-(3,4,5-Trimethoxy-phenylsulfamoyl)-piperidine-2-carboxylic acid Methyl ester]", "Ki": "6900 nM"}, {"smiles": "COc1cc(NS(=O)(=O)N2CCCC[C@H]2C(=O)NCCCN2CCCCC2)cc(OC)c1OC", "note": "[Compound 91, (S)-1-(3,4,5-Trimethoxy-phenylsulfamoyl)-piperidine-2-carboxylic acid (3-piperidin-1-yl-propyl)-amide]", "Ki": "1300 nM"}, {"smiles": "COc1cc(NS(=O)(=O)N2CCCC[C@H]2C(=O)NCCCc2cccnc2)cc(OC)c1OC", "note": "[Compound 93, (S)-1-(3,4,5-Trimethoxy-phenylsulfamoyl)-piperidine-2-carboxylic acid (3-pyridin-3-yl-propyl)-amide]", "Ki": "200 nM"}, {"smiles": "O=C(OCCCCc1ccccc1)[C@@H]1CCCCN1S(=O)(=O)Nc1ccc(N2CCOCC2)nc1", "note": "[Compound 94, (S)-1-(6-Morpholin-4-yl-pyridin-3-ylsulfamoyl)-piperidine-2-carboxylic acid 4-phenyl-butyl ester]", "Ki": "208 nM"}, {"smiles": "O=C(OCCCCc1ccccc1)[C@@H]1CCCCN1S(=O)(=O)Nc1cc(F)c(F)c(F)c1", "note": "[Compound 95, (S)-1-(3,4,5-Trifluoro-phenylsulfamoyl)-piperidine-2-carboxylic acid 4-phenyl-butyl ester]", "Ki": "435 nM"}, {"smiles": "O=C(OCCCCc1ccccc1)[C@@H]1CCCCN1S(=O)(=O)Nc1ccc(C(F)(F)F)nc1", "note": "[Compound 96, (S)-1-(6-Trifluoromethyl-pyridin-3-ylsulfamoyl)-piperidine-2-carboxylic acid 4-phenyl-butyl ester]", "Ki": "440 nM"}, {"smiles": "O=C(OCCCCc1ccccc1)[C@@H]1CCCCN1S(=O)(=O)Nc1cccnc1", "note": "[Compound 97, (S)-1-(Pyridin-3-ylsulfamoyl)-piperidine-2-carboxylic acid 4-phenylbutyl ester]", "Ki": "73 nM"}, {"smiles": "COc1cccc(NS(=O)(=O)N2CCCC[C@H]2C(=O)OCCCCc2ccccc2)c1", "note": "[Compound 98]", "Ki": "218 nM"}, {"smiles": "COc1cc(NS(=O)(=O)N2CCCC[C@H]2C(=O)OC(COCc2ccccc2)COCc2ccccc2)cc(OC)c1OC", "note": "[Compound 102, (S)-1-(3,4,5-Trimethoxy-phenylsulfamoyl)-piperidine-2-carboxylic acid 2-benzyloxy-1-benzyloxymethyl-ethyl ester]", "Ki": "171 nM"}, {"smiles": "COc1ccc(NS(=O)(=O)N2CCCC[C@H]2C(=O)OC(COCc2ccccc2)COCc2ccccc2)cn1", "note": "[Compound 103, (S)-1-(6-Methoxy-pyridin-3-ylsulfamoyl)-piperidine-2-carboxylic acid 2-benzyloxy-1-benzyloxymethyl-ethyl ester]", "Ki": "39 nM"}, {"smiles": "COc1cc(NS(=O)(=O)N2CCCC[C@H]2C(=O)OC(COCc2ccccc2)COCc2ccccc2)c(OC)cc1Cl", "note": "[Compound 104, (S)-1-(4-Chloro-2,5-dimethoxy-phenylsulfamoyl)-piperidine-2-carboxylic acid 2-benzyloxy-1-benzyloxymethyl-ethyl ester]", "Ki": "7100 nM"}, {"smiles": "O=C(OC(COCc1ccccc1)COCc1ccccc1)[C@@H]1CCCCN1S(=O)(=O)Nc1cccnc1", "note": "[Compound 105, (S)-1-(Pyridin-3-ylsulfamoyl)-piperidine-2-carboxylic acid 2-benzyloxy-1-benzyloxymethyl-ethyl ester]", "Ki": "33 nM"}, {"smiles": "O=C(OC(COCc1ccccc1)COCc1ccccc1)[C@@H]1CCCCN1S(=O)(=O)Nc1ccc(N2CCOCC2)nc1", "note": "[Compound 106, (S)-1-(6-Morpholin-4-yl-pyridin-3-ylsulfamoyl)-piperidine-2-carboxylic acid 2-benzyloxy-1-benzyloxymethyl-ethyl ester]", "Ki": "115 nM"}, {"smiles": "Cc1ccc(NS(=O)(=O)N2CCCC[C@H]2C(=O)OC(COCc2ccccc2)COCc2ccccc2)cn1", "note": "[Compound 107, (S)-1-(6-Methyl-pyridin-3-ylsulfamoyl)-piperidine-2-carboxylic acid 2-benzyloxy-1-benzyloxymethyl-ethyl ester]", "Ki": "88 nM"}, {"smiles": "O=C(OC(COCc1ccccc1)COCc1ccccc1)[C@@H]1CCCCN1S(=O)(=O)Nc1cnc(N2CCOCC2)c(C(F)(F)F)c1", "note": "[Compound 108, (S)-1-(Morpholin-4-yl-trifluoromethyl-pyridin-3-ylsulfamoyl)-piperidine-2-carboxylic acid 2-benzyloxy-1-benzyloxymethyl-ethyl ester]", "Ki": "127 nM"}, {"smiles": "COc1cc(NS(=O)(=O)N2CCCC[C@H]2C(=O)N[C@H](COCc2cccnc2)C(C)C)cc(OC)c1OC", "note": "[Compound 112, (S)-1-(3,4,5-Trimethoxy-phenylsulfamoyl)-piperidine-2-carboxylic acid [(S)-2-methyl-1-(pyridin-3-ylmethoxymethyl)-propyl]-amide]", "Ki": "41 nM"}, {"smiles": "CCC(C)(C)NS(=O)(=O)N1CCC[C@H]1COC(=O)N(CCc1ccccc1)Cc1ccccc1", "note": "[Compound 113, Benzyl-phenethyl-carbamic acid (S)-1-(dimethyl-propylsulfamoyl)-pyrrolidin-2-ylmethyl ester]", "Ki": "33000 nM"}, {"smiles": "CCC(C)(C)NS(=O)(=O)N1CCC[C@H]1C(=O)NCCCc1cccnc1", "note": "[Compound 114, (S)-1-(1,1-Dimethyl-propylsulfamoyl)-pyrrolidine-2-carboxylic acid (3-pyridin-3-yl-propyl)-amide]", "Ki": "1110 nM"}, {"smiles": "O=C(OCc1ccccc1)[C@@H]1CCCN1S(=O)(=O)Nc1cccnc1", "note": "[Compound 115, (S)-1-(Pyridin-3-ylsulfamoyl)-pyrrolidine-2-carboxylic acid benzyl ester]", "Ki": "20400 nM"}, {"smiles": "O=C(NCCCc1ccccc1)[C@@H]1CCCN1S(=O)(=O)Nc1cccnc1", "note": "[Compound 118, (S)-1-(Pyridin-3-ylsulfamoyl)-pyrrolidine-2-carboxylic acid (3-phenyl-propyl)-amide]", "Ki": "16900 nM"}, {"smiles": "COc1cc(NS(=O)(=O)N2CCCC[C@H]2C(=O)CCCCCc2ccccc2)cc(OC)c1OC", "note": "[Compound 119, (S)-2-(6-Phenyl-hexanoyl)-piperidine-1-sulfonic acid (3,4,5-trimethoxy-phenyl)-amide]", "Ki": "1300 nM"}]}]}
